Results: paper PMC5120274, “Characterization of the Annonaceous acetogenin, annonacinone, a natural product inhibitor of plasminogen activator inhibitor-1” (Scientific Reports, 2016)
“And” between values parts separate entries of the source, which are not always exact repeats. Equal entries are not always repeated.

Legend:
[1] = molecular target: T1, PAI-1 (Homo sapiens, UniProt P05121); test: thromboelastography (TEG) on pooled human plasma with tPA and PAI-1; type: biochemical
T1 construct: purchased Stago BNL (Asnières sur Seine, FR)
T1 sequence (P05121 24-402): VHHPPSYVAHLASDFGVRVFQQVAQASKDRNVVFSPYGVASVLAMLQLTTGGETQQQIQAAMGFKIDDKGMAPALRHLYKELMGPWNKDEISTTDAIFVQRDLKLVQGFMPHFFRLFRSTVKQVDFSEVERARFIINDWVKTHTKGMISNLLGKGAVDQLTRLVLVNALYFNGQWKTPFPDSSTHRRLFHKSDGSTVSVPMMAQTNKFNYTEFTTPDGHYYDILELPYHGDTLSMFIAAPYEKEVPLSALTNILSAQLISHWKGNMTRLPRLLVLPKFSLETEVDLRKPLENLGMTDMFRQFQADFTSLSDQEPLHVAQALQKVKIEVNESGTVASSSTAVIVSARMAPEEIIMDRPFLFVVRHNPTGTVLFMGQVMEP
Procedure: 20 μL of CaCl2 (0.2 M), 10 μL of PAI-1 (final concentration 22 nM) and 10 μL of tested compounds were added in a TEG cup and pre-incubated for 20 min at room temperature. On the other hand, 1 mL of pooled citrated normal human plasma (pool of at least 10 healthy donors) was added to a vial containing 20 μL of Kaolin. 680 μl of the plasma/Kaolin mixture were then added to 20 μL of tPA (final concentration 9 nM). At the end of pre-incubation time, 320 μL of the plasma/tPA/kaolin mixture were transferred into the TEG cup and the thromboelastogram measured.

[2] = tested on: T2, human α1-antitrypsin; test: continuous chromogenic assay: inhibition of neutrophil elastase by α1-antitrypsin; type: biochemical; settings: α1-antitrypsin pre-incubated with 50 μM annonacinone 20 min 37 °C; untreated 1.2 × 10^−3
T2 construct: purchased Sigma
Procedure: (§1) 5 μM human α1-antitrypsin (Sigma) or human antithrombin (Aclotin®, LFB) were incubated with 50 μM annonacinone (or 0.5% DMSO in reaction buffer as control) for 20 min at 37 °C. The mixtures containing α1-antitrypsin were diluted in N-Methoxysuccinyl-Ala-Ala-Pro-Val p-nitroanilide (Sigma) containing solution and substrate hydrolysis kinetic was triggered by addition of neutrophil elastase (Sigma) to a final volume of 100 μL containing 13 nM α1-antitrypsin, 130 nM annonacinone, 82 μM chromogenic substrate and 5 nM neutrophil elastase. The mixtures containing antithrombin were diluted in fondaparinux (Arixtra®, GlaxoSmithKline) and CS-11(22)-FXa (Hyphen Biomed) containing solution and substrate hydrolysis kinetic was triggered by addition of factor Xa (Stago BNL) to a final volume of 100 μL containing 51 nM antithrombin, 510 nM annonacinone, 200 μM chromogenic substrate, 5 μM fondaparinux and 2 nM factor Xa.

[3] = tested on: T3, PAI-1 R118A; test: chromogenic screening assay with PAI-1 mutant R118A; type: biochemical
T3 construct: made in house
Procedure: (§2) Compounds from our local collection BioCIS and from the Prestwick compound library (Prestwick chemicals, Illkirch, FR), a collection containing only FDA approved drugs (around 4000 compounds in total) were tested in a chromogenic assay measuring the inhibition rate of tPA-catalyzed spectrozyme® tPA hydrolysis in the presence of PAI-1. Compounds (20 μL, final concentration 50 μM, 1% DMSO) were dispensed in a 96 well half area Greiner plate. A mixture containing 20 μL of PAI-1 (final concentration 20 nM) and 80 μL of Spectrozyme-tPA (final concentration 400 μM) was then added, and the mixture pre-incubated for 45 minutes at 37 °C. At the end of pre-incubation time, 90 μL of the mixture were added to another 96 well half area plate containing 10 μL tPA (final concentration 10 nM). The kinetic was then measured at 405 nm for 45 min at 37 °C in an Envision microplate reader. Progress curves were fitted using the pseudo first order equation to determine the apparent rate constant k.
(§3) Mutants were constructed as previously described. […] The effect of annonacinone was measured at 50 μM for each mutant in our chromogenic screening assay. […] For each mutant, the ratio between the apparent rate constants with and without 50 μM annonacinone were calculated and then compared to that of PAI-1 WT to determine the % of annonacinone activity.

[4] = tested on: T4, human antithrombin; test: continuous chromogenic assay: fondaparinux-catalyzed inhibition of factor Xa by antithrombin; type: biochemical; settings: antithrombin pre-incubated with 50 μM annonacinone 20 min 37 °C; control buffer 7.9 × 10^−3
T4 construct: purchased LFB (Aclotin)
Procedure: as §1

[5] = tested on: T5, PAI-1 D95A; test: chromogenic screening assay with PAI-1 mutant D95A; type: biochemical; settings: ratio of kapp relative to WT (100%)
T5 construct: made in house
Procedure: as §2, §3

[6] = tested on: T6, PAI-1/tPA complex; test: PAI-1/tPA complex formation on SDS-PAGE; type: biochemical, human; settings: PAI-1 pre-incubated with annonacinone 30 min 37 °C
T6 construct: purchased Stago BNL (Asnières sur Seine, FR)
Procedure: PAI-1 (4 μL, 1 μM) was pre-incubated with 16 μL annonacinone (2% DMSO) for 30 min at 37 °C. Human tPA (4 μL, 0.5 μM) was then added to the mixture and incubated for 15 min at 37 °C. Reaction was stopped by addition of 4X SDS-PAGE loading buffer followed by immediate boiling. Samples were then analyzed on SDS-PAGE followed by silver staining.

[7] = compound 50 μM, tPA 9 nM + PAI-1 22 nM

## CCCCCCCCCCCC[C@@H](O)[C@H]1CC[C@H]([C@H](O)CCCCC(=O)CCCCC[C@@H](O)CC2=C[C@H](C)OC2=O)O1 [Annonacinone]
[1]; LY60 of three independent experiments plotted against concentration, read-out: IC50 from LY60 values
  IC50: 2.3 ± 1 µM
[1]; TEG, human plasma
  effect on maximal amplitude (MA) and parameters of clot formation (R, K, angle): no significant effect
[1]; [7]
  Angle: 73.5 °
  K (clot formation time): 1.6 min
  MA (maximal amplitude): 21.4 mm
  R (clotting time): 6 min
[1]; compound 50 μM, tPA 9 nM + PAI-1 22 nM, tPA alone 94.3%, tPA + PAI-1 0%
  LY30 (clot lysis 30 minutes after maximal amplitude): 87.1%
[1]; compound 50 μM, tPA 9 nM + PAI-1 22 nM, tPA alone 96.8%, tPA + PAI-1 0%
  LY60 (clot lysis 60 minutes after maximal amplitude): 94% and 93.6%
[2]
  kapp of neutrophil elastase inhibition by α1-antitrypsin: 0.0011 s⁻¹
[3]; DMSO 1% 6,0 ± 0,9 × 10^−3, n = 4
  kapp Annonacinone 50 μM: 3,4 ± 0,3 × 10^−4 s^−1
[3]; ratio of kapp relative to WT (100%)
  Annonacinone activity 50 μM (% WT): 264 ± 40 % WT
[4]
  kapp of factor Xa inhibition by fondaparinux-bound antithrombin: 0.0083 s⁻¹
[5]
  Annonacinone activity 50 μM (% WT): 163 ± 24 % WT
[6]
  effect on PAI-1/tPA covalent complex formation: concentration-dependent inhibition
